Laboratory results: ChEMBL document CHEMBL1128788, “The development of a novel series of non-peptide tachykinin NK3 receptor selective antagonists” (Bioorg Med Chem Lett, 1995)

Experiments:
CHO = experiment: Inhibition of senktide-evoked increases in intracellular calcium levels in CHO cells measured using the fluorescent indicator Fura 2; type: functional, Cricetulus griseus
Neuromedin-K receptor = molecular target: T1, Neuromedin-K receptor (Homo sapiens, UniProt P29371); experiment: Compound was tested for binding affinity against human Tachykinin receptor 3 in CHO cells; type: cell-based
T1 sequence (P29371 whole entry): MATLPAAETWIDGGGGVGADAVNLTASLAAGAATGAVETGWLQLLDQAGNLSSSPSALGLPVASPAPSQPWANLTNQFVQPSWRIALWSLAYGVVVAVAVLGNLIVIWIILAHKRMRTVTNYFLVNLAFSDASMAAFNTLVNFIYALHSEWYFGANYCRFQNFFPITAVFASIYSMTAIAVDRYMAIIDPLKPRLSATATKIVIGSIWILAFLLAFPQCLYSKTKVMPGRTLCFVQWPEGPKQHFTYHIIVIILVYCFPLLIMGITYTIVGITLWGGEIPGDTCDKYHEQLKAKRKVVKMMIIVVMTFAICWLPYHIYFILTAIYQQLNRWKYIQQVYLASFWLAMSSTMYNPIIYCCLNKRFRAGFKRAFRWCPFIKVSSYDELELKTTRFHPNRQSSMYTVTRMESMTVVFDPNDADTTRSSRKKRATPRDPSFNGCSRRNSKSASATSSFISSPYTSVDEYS

Substance-P receptor = Substance-P receptor (Homo sapiens, UniProt P25103); experiment: Compound was tested for binding affinity against human NK1 receptor
Chain of Substance-P receptor (P25103 whole entry): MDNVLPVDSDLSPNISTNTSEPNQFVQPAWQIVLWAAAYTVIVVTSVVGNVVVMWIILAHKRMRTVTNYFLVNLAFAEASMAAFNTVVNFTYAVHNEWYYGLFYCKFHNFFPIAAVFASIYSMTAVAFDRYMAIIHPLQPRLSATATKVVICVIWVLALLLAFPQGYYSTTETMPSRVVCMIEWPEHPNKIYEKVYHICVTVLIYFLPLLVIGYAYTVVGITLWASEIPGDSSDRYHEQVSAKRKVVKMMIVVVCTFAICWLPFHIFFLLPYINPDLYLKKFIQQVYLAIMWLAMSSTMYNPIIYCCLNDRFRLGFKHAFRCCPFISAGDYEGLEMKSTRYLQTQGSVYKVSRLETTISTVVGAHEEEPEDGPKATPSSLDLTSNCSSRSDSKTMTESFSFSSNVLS

Row | IC50 (Neuromedin-K receptor) | IC50 (Substance-P receptor) | Structure (SMILES) | Ke (CHO)
1 |  |  | CC(C)[C@H](OC(=O)N[C@](C)(Cc1ccccc1F)C(=O)NCCCCCCCNC(N)=O)c1ccccc1 | 2.2 nM
2 | 1200 nM | 1400 nM | CC(NC(=O)[C@@](C)(Cc1cc2ccccc2[nH]1)NC(=O)OC(c1ccccc1)C(C)C)c1ccccc1 (stereo partly drawn) | 
